2 molecules from publication PMC2636818, “Atomic structures and functional implications of the archaeal RecQ-like helicase Hjm” (BMC Structural Biology, 2009) can be followed below.

The target in one data set is T1, PfuHjm (Pyrococcus furiosus, UniProt O73946).
T1 construct: gene hel308; full-length 720 residues, recombinant from pET21d (pHJM100) in E. coli BL21 codonPlus (DE3)-RIL; C-terminal ~60 (Form 1) or 20 (Form 2) residues disordered; one molecule per asymmetric unit in Form 1
T1 sequence (O73946 1-720): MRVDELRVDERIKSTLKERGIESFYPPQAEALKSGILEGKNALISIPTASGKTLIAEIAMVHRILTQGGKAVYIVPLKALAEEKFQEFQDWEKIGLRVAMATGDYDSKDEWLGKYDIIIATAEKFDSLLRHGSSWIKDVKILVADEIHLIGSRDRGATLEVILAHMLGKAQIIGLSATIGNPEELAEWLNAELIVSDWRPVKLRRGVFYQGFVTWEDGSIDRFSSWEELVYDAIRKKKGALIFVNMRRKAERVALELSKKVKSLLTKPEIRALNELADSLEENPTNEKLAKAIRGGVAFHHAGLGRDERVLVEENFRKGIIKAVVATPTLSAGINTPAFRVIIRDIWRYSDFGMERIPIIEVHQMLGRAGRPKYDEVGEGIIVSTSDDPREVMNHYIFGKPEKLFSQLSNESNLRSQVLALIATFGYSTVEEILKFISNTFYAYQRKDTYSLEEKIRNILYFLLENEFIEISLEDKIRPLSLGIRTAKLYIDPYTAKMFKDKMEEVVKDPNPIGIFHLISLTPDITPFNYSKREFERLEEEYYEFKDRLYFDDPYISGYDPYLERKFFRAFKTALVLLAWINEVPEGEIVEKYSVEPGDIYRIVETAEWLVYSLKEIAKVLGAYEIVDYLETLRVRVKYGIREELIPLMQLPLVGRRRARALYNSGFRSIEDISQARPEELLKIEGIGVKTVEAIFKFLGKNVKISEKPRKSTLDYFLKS
Kind of data set: X-ray crystal structure, soaked crystal. Type of data set: binding. Conditions: Form 1 crystal soaked with 1 mM ATPgammaS, ADP modelled as hydrolysed product; 100 mM citrate pH 5.0, 1.6 M ammonium sulfate; 2.4 A; nucleotide site.

The target in data set [1] is T2, PfuHjm (RecQ-like helicase Hjm, Hel308 family) (Pyrococcus furiosus, UniProt O73946 1-720).
T2 sequence: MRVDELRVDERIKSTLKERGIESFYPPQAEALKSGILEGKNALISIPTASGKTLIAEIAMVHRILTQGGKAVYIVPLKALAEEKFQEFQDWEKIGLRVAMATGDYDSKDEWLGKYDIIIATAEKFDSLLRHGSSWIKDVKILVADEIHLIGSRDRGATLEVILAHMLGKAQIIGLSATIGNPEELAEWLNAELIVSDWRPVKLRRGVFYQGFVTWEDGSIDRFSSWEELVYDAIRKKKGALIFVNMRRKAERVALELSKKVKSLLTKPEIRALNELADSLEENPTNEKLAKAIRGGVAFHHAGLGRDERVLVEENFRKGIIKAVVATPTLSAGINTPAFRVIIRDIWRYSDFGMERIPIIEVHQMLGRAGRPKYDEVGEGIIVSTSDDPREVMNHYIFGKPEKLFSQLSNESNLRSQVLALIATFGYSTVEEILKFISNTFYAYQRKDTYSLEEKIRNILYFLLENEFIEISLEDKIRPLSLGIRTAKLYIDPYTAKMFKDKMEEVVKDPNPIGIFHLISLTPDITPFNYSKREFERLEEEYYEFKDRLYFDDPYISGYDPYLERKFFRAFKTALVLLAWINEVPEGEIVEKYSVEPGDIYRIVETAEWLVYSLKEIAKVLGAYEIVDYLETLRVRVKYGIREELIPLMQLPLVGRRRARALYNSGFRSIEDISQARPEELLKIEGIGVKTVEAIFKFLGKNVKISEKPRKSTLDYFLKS
Kind of data set: negative-stain single-particle EM (23 A) of complex purified by gel filtration; no nucleotide added; 50 mM Tris-HCl pH 8.0, 0.15 M NaCl, 0.5 mM EDTA, 1 mM DTT, 10% glycerol, room temperature, 20 min, 1:1 protein/DNA. Conditions: protein: recombinant; hairpin with 3' overhang. Background: Size exclusion chromatography separates by hydrodynamic size, large species first.

Consider `Nc1ncnc2c1ncn2[C@@H]1O[C@H](COP(=O)(O)OP(=O)(O)O)[C@@H](O)[C@H]1O` [ADP], for which the “X-ray crystal structure, soaked crystal” value at PfuHjm was “electron density corresponding to the hydrolyzed product ADP, rather than the soaked ATPγS”.

Regarding AGCACTGCTATTCCCTAGCAGTGCTAGATGCACGAC (structured_DNA) [3' overhang hairpin DNA], in data set [1], the binding result is “binds”.
